ChEMBL document CHEMBL1143789, “Synthesis and biological study of medicinally important Mannich bases derived from 4-(dimethylamino)-1,4,4a,5,5a,6,11,12a-octahydro-3,6,10,12,12a pentahydroxy naphthacene carboxamide” (Bioorg Med Chem Lett, 2007)

Columns and labels:
[1] = test system: Mus musculus; experiment: Toxicity in mouse at 1000 mg/kg, ip after 72 hrs; assay type: organism-based; design: dose 1000 mg/kg, route intraperitoneal; conditions: in vivo
[2] = test system: Pasteurella multocida; experiment: Antibacterial activity against Pasteurella multocida at40 mg/ml by paper disc method; assay type: functional
[3] = test system: Salmonella enteritidis; experiment: Antibacterial activity against Salmonella enteritidis at 30 mg/ml by paper disc method; assay type: functional, Salmonella enterica subsp. enterica serovar Enteritidis; conditions: Salmonella enterica; read-out: IZ
[4] = test system: Pasteurella multocida; experiment: Antibacterial activity against Pasteurella multocida at 30 mg/ml by paper disc method; assay type: functional; conditions: read-out: IZ
[5] = test system: Salmonella enteritidis; experiment: Antibacterial activity against Salmonella enteritidis at 20 mg/ml by paper disc method; assay type: functional, Salmonella enterica subsp. enterica serovar Enteritidis; conditions: Salmonella enterica; read-out: IZ
[6] = test system: Pasteurella multocida; experiment: Antibacterial activity against Pasteurella multocida at 20 mg/ml by paper disc method; assay type: functional; conditions: read-out: IZ
[7] = test system: Salmonella enteritidis; experiment: Antibacterial activity against Salmonella enteritidis at 40 mg/ml by paper disc method; assay type: functional, Salmonella enterica subsp. enterica serovar Enteritidis; conditions: Salmonella enterica; read-out: IZ
[8] = test system: Mus musculus; experiment: Toxicity in mouse at 1600 mg/kg, po after 72 hrs; assay type: organism-based; design: dose 1600 mg/kg, route oral; conditions: in vivo

Row | SMILES | Activity [1] | inhibition zone (IZ) [2] [mm] | zone of inhibition at 30000 µg/mL [3] [mm] | zone of inhibition at 30000 µg/mL [4] [mm] | zone of inhibition at 20000 µg/mL [5] [mm] | zone of inhibition at 20000 µg/mL [6] [mm] | zone of inhibition at 40000 µg/mL [7] [mm] | Activity [8]
1 | CN(C)C1C(O)=C(C(=O)NCNc2ccc(S(=O)(=O)Nc3ncccn3)cc2)C(=O)C2(O)C(O)=C3C(=O)c4c(O)cccc4C(C)(O)C3CC12 (configuration not stated) | Toxic | 21.86 | 20.9 | 20.8 | 20 | 20.4 | 21.2 | Non-toxic
2 | CN(C)C1C(O)=C(C(=O)NCNc2ccc(S(N)(=O)=O)cc2)C(=O)C2(O)C(O)=C3C(=O)c4c(O)cccc4C(C)(O)C3CC12 (configuration not stated) | Toxic | 29.08 | 15 | 28.6 | 14.7 | 28.4 | 16 | Non-toxic
3 | COc1ncnc(NS(=O)(=O)c2ccc(NCNC(=O)C3=C(O)C(N(C)C)C4CC5C(=C(O)C4(O)C3=O)C(=O)c3c(O)cccc3C5(C)O)cc2)c1OC (configuration not stated) | Toxic | 24.4 | 15.2 | 23.3 | 15 | 22.1 | 15.5 | Non-toxic
4 | CC(=O)NS(=O)(=O)c1ccc(NCNC(=O)C2=C(O)C(N(C)C)C3CC4C(=C(O)C3(O)C2=O)C(=O)c2c(O)cccc2C4(C)O)cc1 (configuration not stated) | Toxic | 28.3 | – | 27.3 | – | 26.2 | – | Non-toxic
5 | Cc1cc(NS(=O)(=O)c2ccc(NCNC(=O)C3=C(O)C(N(C)C)C4CC5C(=C(O)C4(O)C3=O)C(=O)c3c(O)cccc3C5(C)O)cc2)no1 (configuration not stated) | Toxic | 23.2 | 21.2 | 22 | 21.1 | 21.3 | 22.1 | Non-toxic
6 | CN(C)C1C(O)=C(C(=O)NCNc2ccc(S(=O)(=O)NC(=N)N)cc2)C(=O)C2(O)C(O)=C3C(=O)c4c(O)cccc4C(C)(O)C3CC12 (configuration not stated) | Toxic | 25.2 | 13.9 | 24.3 | 13.2 | 24.1 | 14.2 | Non-toxic
7 | CC(=O)NS(=O)(=O)c1ccc(N)cc1 [SULFACETAMIDE] | – | 22.15 | – | 21.2 | – | 20.5 | – | –
8 | Nc1ccc(S(=O)(=O)Nc2ncccn2)cc1 [SULFADIAZINE] | – | 39 | 15 | 30 | 10 | 28 | 20 | –
9 | N=C(N)NS(=O)(=O)c1ccc(N)cc1 [SULFAGUANIDINE] | – | 25 | 15 | 25 | 10 | 20 | 18 | –
10 | Cc1cc(NS(=O)(=O)c2ccc(N)cc2)no1 [SULFAMETHOXAZOLE] | – | 28 | 15 | 26 | 15 | 24 | 18 | –
11 | Nc1ccc(S(N)(=O)=O)cc1 [SULFANILAMIDE] | – | 28 | 12 | 25 | 10 | 22 | 16 | –
